Test results from patent US9670463B2, “Inhibition and enhancement of reprogramming by chromatin modifying enzymes” (Children's Medical Center Corporation, priority 2011, dated 2017).

Columns and labels:
Oct4-GFP MEFs = test: Reprogramming of OSKM transduced Oct4-GFP MEFs, AP+ colonies; format: cell-based, mouse; details: iDot1L 10 um
Protocol: It was assessed whether these observations can be extended to the murine system. It was observed that, similar to human fibroblasts, iDot1L treatment led to 3-fold enhancement of reprogramming of Oct4-GFP MEFs (FIG. 3D). […] Data correspond to the average and s.d.; n=4. *P<0.001 compared untreated MEFs. Representative AP-stained wells and GFP-positive iPS colonies derived from each condition are shown in the lower panel.

H3K79 methylation = test: Total H3K79me2 levels in fibroblasts by western blotting; format: cell-based, human; details: 1 uM to 10 uM concentration range, fibroblasts treated 5 days
Description: In addition to the shRNA mediated knockdown of Dot1L, a small molecule inhibitor of Dot1L catalytic activity was used to further validate the findings^15. […] Data correspond to the average and s.d.; n=3. *P<0.001 compared untreated fibroblasts.

H3K79me2 = test: ChIP-seq for H3K79me2 on OSKM expressing fibroblasts; format: cell-based, human; details: iDot1L 10 uM; 6 days after OSKM
Protocol: ChIP-seq was performed as described with slight modifications^25. 300 000 cells were fixed at room temperature in PBS 1% formalin (v/v) for 10 minutes with gentle agitations. Fixation was stopped by the addition of glycine (125 mM final concentration) and agitation for 5 min at room temperature. Fixed cells were washed twice in ice-cold PBS, resuspended in 100 ul of SDS lysis buffer (1% SDS, 10 mM EDTA, 50 mM Tris-HCl, pH 8.1). Chromatin was sheared by sonication to about 100-500 bp fragments using bioruptor (diagenode, Denville, N.J.) and diluted tenfold with dilution buffer (0.01% SDS, 1.1% Triton-X100, 1.2 mM EDTA, 16.7 mM Tris-HCl, pH 8.1, 167 mM NaCl). Antibodies against specific histone modifications was added to sonicated chromatin solution and incubated at 4 degree overnight with gentle agitation. The antibodies used were anti-H3K27me3 (Millipore 07-449) and anti-H3K79me2 (abcam 3594). Immune complexes were collected by incubation with 20 ul of Protein A/G agarose beads (Millipore) for an hour at 4 degree with gentle agitation. […]

[1] = test system: iPS-derived secondary MEFs; test: Reprogramming of inducible iPS-derived secondary MEFs, AP+ colonies; format: cell-based, mouse; details: doxycycline, iDot1L 10 um
dH1f cells = test: Reprogramming assay, Tra-1-60+ iPSC colonies from dH1f fibroblasts; format: cell-based, human
Protocol: dH1f cells were first infected with shRNA viruses at high MOI to ensure all cells received at least one vector (Gauged by puromycin resistance of parallel infected wells). 25,000 shRNA-infected dH1f cells were then plated per well in 12-well plates and infected overnight with either retroviral (MOI 2.5) 7 or lentiviral (Addgene #21162, 21164; 100-200 μl supernatant)29 reprogramming factors. For 2-factor reprogramming, Oct4 and Sox2 viruses were used at an MOI of 5. 6 days later, cells were trypsinized and re-plated 1:4 to 1:6 onto 6-well plates. Medium was changed to hES medium daily until Day 21 when plates were fixed. Small molecule inhibitor of Dot1L, EPZ004777 (a gift from Epizyme, Inc., Cambridge, Mass.) was dissolved in DMSO as a 10 mM stock and was added at the indicated concentrations. For Dot1L rescue experiments, an MSCV-based retroviral vector encoding human Dot1L with or without mutations in the SAM binding site (gifts of Y. Zhang) were mutagenized at the shRNA target site using QuikChange II XL Site-Directed Mutagenesis Kit (Agilent Technologies). In certain experiments, Nanog and Lin28 expression was achieved using lentivirus (Addgene #21163). IMR-90 and MRC5 human diploid fibroblasts were purchased from ATCC and 50000 cells were used in reprogramming experiments. Statistical analysis was performed using a Student's t-test.
Immunostaining of reprogramming plates were performed as described^8. Briefly, cells were fixed with 4% p-formaldehyde and stained with biotin-anti-Tra-1-60 (eBioscience, #13-8863-82, 1:250) and streptavidin horseradish peroxidase (Biolegend, #405210, 1:500) diluted in PBS (3%), FCS (0.3%) Triton X-100. Staining was developed with the Vector labs DAB kit (#SK-4100), and iPSC colonies quantified with ImageJ software. For the characterization of shDot1l-iPS cells, single colonies were put onto MEF coated 96-well plates. The plates were fixed for 20 min with 4% p-formaldehyde/PBS (+/+), washed several times with PBS (+/+) and incubated overnight at 4° C. with primary antibody and Hoechst diluted in 3% donkey serum/3% BSA Fraction VII/0.01% Triton X-100/PBS (+/+); Hoechst, Invitrogen #H3570 (1:20,000), Tra-1-81/A488 (BD #560174), SSEA-4/A647 (BD #560219), Tra-1-60/A647 (BD #560122), Nanog, rabbit polyclonal (Abcam #ab21624), Oct4, rabbit polyclonal (Abcam #ab19857). For Nanog and Oct4, donkey anti-rabbit IgG/A555 (Molecular Probes #A31572) secondary antibody was used. After several washes with PBS (+/+), images were acquired using a BD Pathway 435 imager equipped with a ×10 objective.

[2] = iDot1L 10 uM, OSKM, Tra-1-60+ colonies at 21 days

Question: Which results are given for `CC(C)N(CCCNC(=O)Nc1ccc(C(C)(C)C)cc1)C[C@H]1O[C@@H](n2ccc3c(N)ncnc32)[C@H](O)[C@@H]1O.Cl` [EPZ004777]?
Answer: enhancement of reprogramming of Oct4-GFP MEFs (Oct4-GFP MEFs): 3 fold; H3K79 methylation (H3K79 methylation): abrogated H3K79 methylation robustly; K79me2 levels on genes (H3K79me2): reduced on almost all genes; reprogramming efficiency of secondary MEFs [1]: increased reprogramming efficiency; enhancement of reprogramming of human fibroblasts (dH1f cells; OSKM, dH1f cells treated for 21 days, relative to untreated): 3-4 fold; reprogramming efficiency, inhibitor combined with Dot1L knockdown (dH1f cells; iDot1L 10 uM plus Dot1L shRNA, OSKM, 21 days): did not result in a further increase of reprogramming efficiency; reprogramming, pretreatment for 5 days prior to OSKM transduction (dH1f cells; [2]): no effect; reprogramming, treatment in the first or the second week (dH1f cells; [2]): sufficient to enhance reprogramming; reprogramming in the absence of Klf4, c-Myc or both (dH1f cells; iDot1L 10 uM, Tra-1-60 staining 21 days after reprogramming): allowed reprogramming in the absence of either Klf4 or Myc and was able to replace both of these exogenous factors
